In ChEMBL document CHEMBL4118135, “Optimized allosteric inhibition of engineered protein tyrosine phosphatases with an expanded palette of biarsenical small molecules” (Bioorg Med Chem, 2018):
Substitutions are numbered along the chain they refer to. Calls of active or inactive are those of the source. The rule behind the calls is not given here.

Columns and labels:
[1] = target: T1, Tyrosine-protein phosphatase non-receptor type 1 (Homo sapiens) (UniProt P18031); experiment: Inhibition of His6-tagged human wild-type PTP1B catalytic domain at 2000 nM using pNPP as substrate incubated for 90 mins by quenched phosphatase activity assay
T1 sequence (whole entry): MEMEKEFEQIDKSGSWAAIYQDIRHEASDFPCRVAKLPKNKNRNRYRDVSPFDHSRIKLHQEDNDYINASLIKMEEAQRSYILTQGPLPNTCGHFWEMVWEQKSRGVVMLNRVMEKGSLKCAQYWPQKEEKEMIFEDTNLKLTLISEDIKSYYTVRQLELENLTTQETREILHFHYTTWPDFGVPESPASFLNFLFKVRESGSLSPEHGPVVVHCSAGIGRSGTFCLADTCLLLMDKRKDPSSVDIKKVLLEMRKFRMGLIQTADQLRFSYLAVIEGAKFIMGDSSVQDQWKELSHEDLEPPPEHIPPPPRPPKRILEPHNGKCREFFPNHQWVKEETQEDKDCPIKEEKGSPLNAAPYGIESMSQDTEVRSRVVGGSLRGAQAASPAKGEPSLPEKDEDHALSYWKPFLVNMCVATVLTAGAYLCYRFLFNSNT

[2] = tested on: T2, Tyrosine-protein phosphatase non-receptor type 1 (Homo sapiens), P18031 [P87C,A122C]; experiment: Inhibition of allosterically sensitized His6-tagged human PTP1B catalytic domain P87C/A122C mutant at 250 nM using pNPP as substrate incubated for 90 mins by quenched phosphatase activity assay
T2 sequence (whole entry): T1 sequence (whole entry) with P87C, A122C

[3] = target: T1, Tyrosine-protein phosphatase non-receptor type 1 (Homo sapiens); experiment: Inhibition of His6-tagged human wild-type PTP1B catalytic domain at 500 nM using DADEpYLIPQQG as substrate incubated for 90 mins by continuous phosphatase activity assay
[4] = tested on: T2, Tyrosine-protein phosphatase non-receptor type 1 (Homo sapiens), P18031 [P87C,A122C]; experiment: Inhibition of allosterically sensitized His6-tagged human PTP1B catalytic domain P87C/A122C mutant overexpressed in Escherichia coli BL21(DE3) cells using pNPP as substrate incubated for 90 mins by quenched phosphatase activity assay
[5] = target: T1, Tyrosine-protein phosphatase non-receptor type 1 (Homo sapiens); experiment: Binding affinity to His6-tagged human wild-type PTP1B catalytic domain overexpressed in Escherichia coli crude cell lysate at 6.66 uM incubated for 90 mins by SDS-PAGE and LC-MS/MS method
[6] = tested on: T3, Tyrosine-protein phosphatase non-receptor type 7 (Homo sapiens), P35236 [P171C,V205C]; experiment: Inhibition of allosterically sensitized mutant form of His6-tagged human HePTP catalytic domain at 500 nM using pNPP as substrate incubated for 90 mins by quenched phosphatase activity assay
T3 sequence (whole entry): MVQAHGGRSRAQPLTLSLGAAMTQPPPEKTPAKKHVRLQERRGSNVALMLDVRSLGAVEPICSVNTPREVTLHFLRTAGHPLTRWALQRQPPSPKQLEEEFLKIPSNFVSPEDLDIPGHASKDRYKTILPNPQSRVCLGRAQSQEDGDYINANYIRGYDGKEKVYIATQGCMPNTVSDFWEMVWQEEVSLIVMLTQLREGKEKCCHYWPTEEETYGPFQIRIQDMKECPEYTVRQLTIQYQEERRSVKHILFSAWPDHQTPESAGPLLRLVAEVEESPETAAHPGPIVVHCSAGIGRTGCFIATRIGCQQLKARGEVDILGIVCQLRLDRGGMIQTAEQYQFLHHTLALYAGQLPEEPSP

[7] = species on record: Homo sapiens; experiment: Inhibition of His6-tagged human wild-type PTP catalytic domain at 500 nM using pNPP as substrate incubated for 90 mins by quenched phosphatase activity assay
[8] = target: Tyrosine-protein phosphatase non-receptor type 6 (Homo sapiens) (UniProt P29350); experiment: Inhibition of allosterically sensitized mutant form of His6-tagged human SHP1 catalytic domain at 500 nM using pNPP as substrate incubated for 90 mins by quenched phosphatase activity assay
Tyrosine-protein phosphatase non-receptor type 6 (Homo sapiens), sequence (P29350 whole entry, the tested form may be a part): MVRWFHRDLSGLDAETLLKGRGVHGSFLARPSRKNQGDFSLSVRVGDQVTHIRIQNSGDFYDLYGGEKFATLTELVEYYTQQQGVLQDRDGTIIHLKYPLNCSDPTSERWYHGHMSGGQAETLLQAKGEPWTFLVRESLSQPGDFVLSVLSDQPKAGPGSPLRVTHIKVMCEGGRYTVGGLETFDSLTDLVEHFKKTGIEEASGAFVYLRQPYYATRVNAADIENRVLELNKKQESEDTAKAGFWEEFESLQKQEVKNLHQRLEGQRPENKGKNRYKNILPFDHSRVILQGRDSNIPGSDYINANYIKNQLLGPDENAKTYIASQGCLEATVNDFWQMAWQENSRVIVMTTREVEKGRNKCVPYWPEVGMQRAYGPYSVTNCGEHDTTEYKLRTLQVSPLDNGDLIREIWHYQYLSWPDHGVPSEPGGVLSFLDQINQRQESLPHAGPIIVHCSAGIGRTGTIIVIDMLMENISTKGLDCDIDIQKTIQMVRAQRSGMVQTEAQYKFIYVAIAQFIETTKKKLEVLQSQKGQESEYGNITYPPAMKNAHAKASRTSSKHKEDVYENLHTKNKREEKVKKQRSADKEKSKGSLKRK

[9] = target: T4, Tyrosine-protein phosphatase non-receptor type 11 (Homo sapiens) (UniProt Q06124); experiment: Inhibition of allosterically sensitized mutant form of His6-tagged human SHP2 catalytic domain at 500 nM at 500 nM using pNPP as substrate incubated for 90 mins by quenched phosphatase activity assay
T4 sequence (whole entry): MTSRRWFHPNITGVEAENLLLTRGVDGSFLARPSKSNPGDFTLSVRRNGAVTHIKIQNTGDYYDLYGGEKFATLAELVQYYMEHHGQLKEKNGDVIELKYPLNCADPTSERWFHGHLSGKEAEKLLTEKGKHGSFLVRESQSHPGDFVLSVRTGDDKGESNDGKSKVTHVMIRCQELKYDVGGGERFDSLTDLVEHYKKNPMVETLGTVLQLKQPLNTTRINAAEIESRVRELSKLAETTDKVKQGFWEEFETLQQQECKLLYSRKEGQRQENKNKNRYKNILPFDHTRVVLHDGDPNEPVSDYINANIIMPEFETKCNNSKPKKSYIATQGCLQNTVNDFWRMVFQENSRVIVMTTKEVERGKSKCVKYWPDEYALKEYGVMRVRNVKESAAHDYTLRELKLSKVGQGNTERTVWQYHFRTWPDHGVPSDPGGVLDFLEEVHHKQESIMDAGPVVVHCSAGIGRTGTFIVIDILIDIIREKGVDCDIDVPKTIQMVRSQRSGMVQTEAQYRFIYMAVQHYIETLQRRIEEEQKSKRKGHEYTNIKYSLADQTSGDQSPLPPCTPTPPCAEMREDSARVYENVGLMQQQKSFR

[10] = target: Tyrosine-protein phosphatase non-receptor type 13 (Homo sapiens) (UniProt Q12923); experiment: Inhibition of allosterically sensitized mutant form of His6-tagged human FAP1 catalytic domain at 500 nM using pNPP as substrate incubated for 90 mins by quenched phosphatase activity assay
Tyrosine-protein phosphatase non-receptor type 13 (Homo sapiens), sequence (Q12923 whole entry, the tested form may be a part): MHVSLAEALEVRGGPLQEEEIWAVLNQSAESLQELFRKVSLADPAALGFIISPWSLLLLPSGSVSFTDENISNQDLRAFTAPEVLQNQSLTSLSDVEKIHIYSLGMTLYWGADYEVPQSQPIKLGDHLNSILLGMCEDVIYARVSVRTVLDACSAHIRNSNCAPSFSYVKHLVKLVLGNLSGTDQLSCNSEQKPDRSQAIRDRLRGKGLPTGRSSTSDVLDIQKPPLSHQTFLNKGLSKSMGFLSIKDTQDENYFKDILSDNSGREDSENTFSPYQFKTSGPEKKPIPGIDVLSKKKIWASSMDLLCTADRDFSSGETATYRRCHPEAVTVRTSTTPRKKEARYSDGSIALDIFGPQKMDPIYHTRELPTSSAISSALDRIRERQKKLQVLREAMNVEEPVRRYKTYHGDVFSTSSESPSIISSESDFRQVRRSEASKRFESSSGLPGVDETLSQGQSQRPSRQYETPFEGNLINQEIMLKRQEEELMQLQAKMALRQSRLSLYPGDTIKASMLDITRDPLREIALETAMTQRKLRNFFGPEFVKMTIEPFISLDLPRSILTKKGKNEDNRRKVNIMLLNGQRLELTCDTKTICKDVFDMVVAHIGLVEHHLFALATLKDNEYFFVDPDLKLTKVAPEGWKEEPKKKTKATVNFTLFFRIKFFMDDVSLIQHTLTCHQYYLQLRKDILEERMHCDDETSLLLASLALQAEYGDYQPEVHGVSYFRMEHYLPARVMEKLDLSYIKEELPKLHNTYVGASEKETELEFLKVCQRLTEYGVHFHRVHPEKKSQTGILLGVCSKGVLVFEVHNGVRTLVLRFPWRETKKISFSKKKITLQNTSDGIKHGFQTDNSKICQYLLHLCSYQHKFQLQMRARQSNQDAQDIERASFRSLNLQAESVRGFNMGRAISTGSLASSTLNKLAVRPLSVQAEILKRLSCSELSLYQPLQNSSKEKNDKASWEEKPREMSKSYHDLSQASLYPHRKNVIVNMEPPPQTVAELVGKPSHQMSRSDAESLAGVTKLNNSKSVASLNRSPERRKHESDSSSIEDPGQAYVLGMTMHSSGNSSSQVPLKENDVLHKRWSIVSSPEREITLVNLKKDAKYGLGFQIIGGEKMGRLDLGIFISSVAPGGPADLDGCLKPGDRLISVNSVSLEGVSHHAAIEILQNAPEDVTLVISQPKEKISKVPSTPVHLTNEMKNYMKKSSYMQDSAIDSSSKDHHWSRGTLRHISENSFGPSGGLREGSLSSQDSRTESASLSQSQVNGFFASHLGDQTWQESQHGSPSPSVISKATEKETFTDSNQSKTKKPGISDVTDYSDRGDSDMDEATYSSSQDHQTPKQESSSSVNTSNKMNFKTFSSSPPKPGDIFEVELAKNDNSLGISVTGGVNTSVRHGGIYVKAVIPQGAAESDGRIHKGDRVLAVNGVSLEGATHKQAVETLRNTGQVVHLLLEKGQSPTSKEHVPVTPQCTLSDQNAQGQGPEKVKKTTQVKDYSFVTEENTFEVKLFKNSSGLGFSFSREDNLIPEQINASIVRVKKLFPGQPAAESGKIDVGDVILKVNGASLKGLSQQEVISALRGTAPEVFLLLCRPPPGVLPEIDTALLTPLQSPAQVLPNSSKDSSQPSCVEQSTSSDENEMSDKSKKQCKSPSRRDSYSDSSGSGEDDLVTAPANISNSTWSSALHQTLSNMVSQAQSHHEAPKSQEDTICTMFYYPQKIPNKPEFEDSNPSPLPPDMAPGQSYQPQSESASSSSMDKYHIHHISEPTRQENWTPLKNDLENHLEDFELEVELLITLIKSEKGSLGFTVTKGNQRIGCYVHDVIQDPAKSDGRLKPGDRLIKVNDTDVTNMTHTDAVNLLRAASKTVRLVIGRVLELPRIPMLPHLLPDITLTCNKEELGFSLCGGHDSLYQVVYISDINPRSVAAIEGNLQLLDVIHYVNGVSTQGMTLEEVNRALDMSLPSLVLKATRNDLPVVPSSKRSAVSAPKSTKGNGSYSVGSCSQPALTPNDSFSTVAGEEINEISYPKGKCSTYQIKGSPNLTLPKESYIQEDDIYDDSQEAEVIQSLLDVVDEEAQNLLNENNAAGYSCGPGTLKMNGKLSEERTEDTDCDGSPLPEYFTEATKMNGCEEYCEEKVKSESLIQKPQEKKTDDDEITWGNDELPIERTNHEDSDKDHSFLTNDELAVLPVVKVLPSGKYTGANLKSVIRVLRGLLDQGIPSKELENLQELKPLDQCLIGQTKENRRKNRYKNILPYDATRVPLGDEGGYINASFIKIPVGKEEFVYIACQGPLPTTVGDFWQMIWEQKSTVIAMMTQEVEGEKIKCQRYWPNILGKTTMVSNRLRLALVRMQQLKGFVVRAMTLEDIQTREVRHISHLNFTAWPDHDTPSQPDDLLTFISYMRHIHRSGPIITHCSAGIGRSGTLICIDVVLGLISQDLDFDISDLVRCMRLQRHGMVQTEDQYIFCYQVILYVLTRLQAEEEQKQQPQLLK

[11] = target: T4, Tyrosine-protein phosphatase non-receptor type 11 (Homo sapiens); experiment: Inhibition of allosterically sensitized mutant form of His6-tagged human SHP2 containing SHP1 and […] SH2 domain at 500 nM at 500 nM using pNPP as substrate incubated for 90 mins by quenched phosphatase activity assay
[12] = tested on: T3, Tyrosine-protein phosphatase non-receptor type 7 (Homo sapiens), P35236 [P171C,V205C]; experiment: Binding affinity to allosterically sensitized mutant form of His6-tagged human HePTP catalytic domain overexpressed in Escherichia coli crude cell lysate at 25 to 100 uM using pNPP as substrate after 90 mins by SDS-PAGE and LC-MS/MS method
[13] = tested on: T3, Tyrosine-protein phosphatase non-receptor type 7 (Homo sapiens), P35236 [P171C,V205C]; experiment: Inhibition of allosterically sensitized mutant form of His6-tagged human HePTP catalytic domain overexpressed in Escherichia coli BL21(DE3) cells using pNPP as substrate incubated for 90 mins by quenched phosphatase activity assay

Row | SMILES | inhibition [1] | inhibition [2] | inhibition [3] | inhibition [4] | Activity [5] | inhibition [6] | inhibition [7] | inhibition [8] | inhibition [9] | inhibition [10] | inhibition [11] | Activity [12] | inhibition [13]
1 | CC1(C)C(/C=C/C=C2/N(CCCCS(=O)(=O)O)c3ccc([As]4SCCS4)cc3C2(C)C)=[N+](CCCCS(=O)(=O)O)c2ccc([As]3SCCS3)cc21 | inactive | 70% | inactive | Dose-dependent effect | inactive | inactive | Active | Active | inactive | Active | inactive | – | –
2 | O=C(O)c1ccccc1-c1c2ccc(=O)c([As]3SCCS3)c-2oc2c([As]3SCCS3)c(O)ccc12 | – | Active | – | – | – | Active | Active | Active | Active | Active | Active | Active | Dose-dependent effect
